Results reported in US20040082550A1, “Tropolone derivative” (priority 2000, published 2004).

Tested on: promyelocyte leukemia cell strain HL-60
Assay: Test for induction of cell differentiation in HL-60 cells (NBT reduction ability)
Assay type: cell-based
Settings: for Ratio of cells for which differentiation was induced by each compound alone (%): calculated from NBT reduction ability; for Ratio of cells for which differentiation was induced by each compound in combination with 1 × 10^−7 M of HX630 (%): in combination with 1×10^−7 M HX630 (retinoid synergist)
Description: For each of the compounds of the examples, action for inducing cell differentiation was examined for each alone and in combination with 1×10^−7 M of HX630. According to the methods described in Japanese Patent Unexamined Publication (KOKAI) No. (Sho)61-76440/1986, differentiation of the cells of promyelocyte leukemia cell strain HL-60 into granulocytic series cells was determined based on morphological change and measurement of ability to reduce nitro blue tetrazolium (NBT). The ratios (%) of differentiated cells shown in the following table are those calculated from NBT reduction ability. HX630 is a retinoid synergist that enhances actions of retinoids, and the concentrations of −8, −7 and −6 mean that each compound was added at concentrations of 1×10^−8 M, 1×10^−7 M and 1×10^−6 M, respectively.

[1] = compound concentration -6 (1×10^−6 M)
[2] = compound concentration -7 (1×10^−7 M)
[3] = compound concentration -8 (1×10^−8 M)

With CC1(C)CCC(C)(C)c2cc(Nc3ccc(O)c(=O)cc3)ccc21 [Tp10] as the molecule, how does the “Ratio of cells for which differentiation was induced by each compound alone (%)” value (concentration -6 (1×10^−6 M)) read?
Its value is 3.3%.

And the “Ratio of cells for which differentiation was induced by each compound alone (%)” value (concentration -7 (1×10^−7 M))?
Its value is 2.9%.

What about the “Ratio of cells for which differentiation was induced by each compound alone (%)” value (concentration -8 (1×10^−8 M)) of the same molecule?
Its value is 6.8%.

What about the “Ratio of cells for which differentiation was induced by each compound in combination with 1 × 10^−7 M of HX630 (%)” value [1] of the same molecule?
Its value is 5.6%.

And the “Ratio of cells for which differentiation was induced by each compound in combination with 1 × 10^−7 M of HX630 (%)” value [2]?
The value was 2.9%.

And the “Ratio of cells for which differentiation was induced by each compound in combination with 1 × 10^−7 M of HX630 (%)” value [3]?
The value was 3%.

What does the source list for Cc1cc2c(cc1Nc1ccc(O)c(=O)cc1)C(C)(C)CCC2(C)C [Tp20]?
Ratio of cells for which differentiation was induced by each compound alone (%) (concentration -6 (1×10^−6 M)): 2.7%; Ratio of cells for which differentiation was induced by each compound alone (%) (concentration -7 (1×10^−7 M)): 1.8%; Ratio of cells for which differentiation was induced by each compound alone (%) (concentration -8 (1×10^−8 M)): 2.1%; Ratio of cells for which differentiation was induced by each compound in combination with 1 × 10^−7 M of HX630 (%) [1]: 2.4%; Ratio of cells for which differentiation was induced by each compound in combination with 1 × 10^−7 M of HX630 (%) [2]: 3.7%; Ratio of cells for which differentiation was induced by each compound in combination with 1 × 10^−7 M of HX630 (%) [3]: 4.6%

Cc1cc2c(cc1N(C)c1ccc(O)c(=O)cc1)C(C)(C)CCC2(C)C [Tp22] was tested. Which “Ratio of cells for which differentiation was induced by each compound alone (%)” value (concentration -6 (1×10^−6 M)) did it give?
The value was 18%.

And the “Ratio of cells for which differentiation was induced by each compound alone (%)” value (concentration -7 (1×10^−7 M))?
Its value is 2.4%.

What about the “Ratio of cells for which differentiation was induced by each compound alone (%)” value (concentration -8 (1×10^−8 M)) of the same molecule?
Its value is 2.8%.

And the “Ratio of cells for which differentiation was induced by each compound in combination with 1 × 10^−7 M of HX630 (%)” value [1]?
Its value is 78%.

What about the “Ratio of cells for which differentiation was induced by each compound in combination with 1 × 10^−7 M of HX630 (%)” value [2] of the same molecule?
The value was 3.3%.

And the “Ratio of cells for which differentiation was induced by each compound in combination with 1 × 10^−7 M of HX630 (%)” value [3]?
Its value is 2.1%.

What does the source list for CC1(C)CCC(C)(C)c2cc(NC(=O)Nc3ccc(O)c(=O)cc3)ccc21 [Tp30]?
Ratio of cells for which differentiation was induced by each compound alone (%) (concentration -6 (1×10^−6 M)): 1.2%; Ratio of cells for which differentiation was induced by each compound alone (%) (concentration -7 (1×10^−7 M)): 1.5%; Ratio of cells for which differentiation was induced by each compound alone (%) (concentration -8 (1×10^−8 M)): 1.3%; Ratio of cells for which differentiation was induced by each compound in combination with 1 × 10^−7 M of HX630 (%) [1]: 20%; Ratio of cells for which differentiation was induced by each compound in combination with 1 × 10^−7 M of HX630 (%) [2]: 2.3%; Ratio of cells for which differentiation was induced by each compound in combination with 1 × 10^−7 M of HX630 (%) [3]: 2.5%

Which results are given for CC1(C)CCC(C)(C)c2cc(S(=O)(=O)Nc3ccc(O)c(=O)cc3)ccc21 [Tp40]?
Ratio of cells for which differentiation was induced by each compound alone (%) (concentration -6 (1×10^−6 M)): 2.3%; Ratio of cells for which differentiation was induced by each compound alone (%) (concentration -7 (1×10^−7 M)): 0.9%; Ratio of cells for which differentiation was induced by each compound alone (%) (concentration -8 (1×10^−8 M)): 1.3%; Ratio of cells for which differentiation was induced by each compound in combination with 1 × 10^−7 M of HX630 (%) [1]: 2%; Ratio of cells for which differentiation was induced by each compound in combination with 1 × 10^−7 M of HX630 (%) [2]: 2.5%; Ratio of cells for which differentiation was induced by each compound in combination with 1 × 10^−7 M of HX630 (%) [3]: 1.8%

What does the source list for CC(C)(C)c1cc(C(=O)Nc2ccc(O)c(=O)cc2)cc(C(C)(C)C)c1 [Tp50]?
Ratio of cells for which differentiation was induced by each compound alone (%) (concentration -6 (1×10^−6 M)): 5.1%; Ratio of cells for which differentiation was induced by each compound alone (%) (concentration -7 (1×10^−7 M)): 2.8%; Ratio of cells for which differentiation was induced by each compound alone (%) (concentration -8 (1×10^−8 M)): 1.6%

What does the source list for O=C(Nc1ccc(O)c(=O)cc1)c1cc(C(F)(F)F)cc(C(F)(F)F)c1 [Tp60]?
Ratio of cells for which differentiation was induced by each compound alone (%) (concentration -6 (1×10^−6 M)): 2.1%; Ratio of cells for which differentiation was induced by each compound alone (%) (concentration -7 (1×10^−7 M)): 1.3%; Ratio of cells for which differentiation was induced by each compound alone (%) (concentration -8 (1×10^−8 M)): 0.8%; Ratio of cells for which differentiation was induced by each compound in combination with 1 × 10^−7 M of HX630 (%) [1]: 37.8%; Ratio of cells for which differentiation was induced by each compound in combination with 1 × 10^−7 M of HX630 (%) [2]: 21.2%; Ratio of cells for which differentiation was induced by each compound in combination with 1 × 10^−7 M of HX630 (%) [3]: 2.2%

With CC1(C)CCC(C)(C)c2cc(C(=O)Nc3ccc(O)c(=O)cc3)ccc21 [Tp80] as the molecule, how does the “Ratio of cells for which differentiation was induced by each compound alone (%)” value (concentration -6 (1×10^−6 M)) read?
Its value is 21%.

And the “Ratio of cells for which differentiation was induced by each compound alone (%)” value (concentration -7 (1×10^−7 M))?
The value was 26%.

What about the “Ratio of cells for which differentiation was induced by each compound alone (%)” value (concentration -8 (1×10^−8 M)) of the same molecule?
Its value is 7%.

And the “Ratio of cells for which differentiation was induced by each compound in combination with 1 × 10^−7 M of HX630 (%)” value [1]?
The value was 79%.

What about the “Ratio of cells for which differentiation was induced by each compound in combination with 1 × 10^−7 M of HX630 (%)” value [2] of the same molecule?
The value was 85%.

And the “Ratio of cells for which differentiation was induced by each compound in combination with 1 × 10^−7 M of HX630 (%)” value [3]?
Its value is 82%.

How did the “Ratio of cells for which differentiation was induced by each compound alone (%)” value (concentration -6 (1×10^−6 M)) turn out when CN(C(=O)c1ccc2c(c1)C(C)(C)CCC2(C)C)c1ccc(O)c(=O)cc1 [Tp82] was run?
The value was 1.4%.

What about the “Ratio of cells for which differentiation was induced by each compound alone (%)” value (concentration -7 (1×10^−7 M)) of the same molecule?
The value was 1.2%.

And the “Ratio of cells for which differentiation was induced by each compound alone (%)” value (concentration -8 (1×10^−8 M))?
Its value is 0.5%.

What about the “Ratio of cells for which differentiation was induced by each compound in combination with 1 × 10^−7 M of HX630 (%)” value [1] of the same molecule?
The value was 42%.

And the “Ratio of cells for which differentiation was induced by each compound in combination with 1 × 10^−7 M of HX630 (%)” value [2]?
Its value is 7%.

What about the “Ratio of cells for which differentiation was induced by each compound in combination with 1 × 10^−7 M of HX630 (%)” value [3] of the same molecule?
The value was 1.9%.
